The values below come from PubChem BioAssay AID206 (DTP/NCI, 2004).

SMILES strings stand for the structures. Several values for one entry are separate records, joined by “and”; a condition that tells them apart may be missing. Identical values can stand only once. Inconclusive results are not listed.

In the test the test system is nude mice, HT29 intrarenal xenograft, tumor weight T/C. Description: NCI In Vivo Anticancer Drug Screen. Data for tumor model HT29;CX-1 Human Adenocarcinoma (MER+) (intrarenal inoculation) in NU/NU Swiss (nude) mice. The settings on record: endpoint: mean tumor weight change, higher = larger tumour. The procedure, abridged:
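Mice with transplanted tumors are dosed with compound while controls get vehicle only. Survival or tumor burden is then assessed per group, and the treated value is expressed relative to control.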

Where [1] appears, read: dose: 25.0 mg/kg/injection, schedule: Q01DX010 (sc), vehicle: water.
Setting [2] is: dose: 2.0 mg/kg/injection, schedule: Q04DX004 (sc), vehicle: saline.
The mark [3] stands for this setting: dose: 4.0 mg/kg/injection, schedule: Q04DX004 (sc), vehicle: saline.
[4] abbreviates: dose: 8.0 mg/kg/injection, schedule: Q04DX004 (sc), vehicle: saline.
The mark [5] stands for this setting: dose: 50.0 mg/kg/injection, schedule: Q04DX004 (sc), vehicle: saline with Tween-80.
Setting [6] is: dose: 100.0 mg/kg/injection, schedule: Q01DX010 (sc), vehicle: saline with Tween-80.
Setting [7] is: dose: 200.0 mg/kg/injection, schedule: Q01DX010 (sc), vehicle: saline with Tween-80.
[8] abbreviates: dose: 600.0 mg/kg/injection, schedule: Q04DX004 (sc), vehicle: Klucel (hydroxypropylcellulose) (HPC).
Setting [9] is: dose: 600.0 mg/kg/injection, schedule: Q04DX004 (sc), vehicle: saline with Tween-80.
Where [10] appears, read: dose: 1200.0 mg/kg/injection, schedule: Q04DX004 (sc), vehicle: saline with Tween-80.
[11] abbreviates: dose: 12.5 mg/kg/injection, schedule: Q01DX010 (sc), vehicle: Klucel (hydroxypropylcellulose) (HPC).
Where [12] appears, read: dose: 25.0 mg/kg/injection, schedule: Q01DX010 (sc), vehicle: Klucel (hydroxypropylcellulose) (HPC).
Where [13] appears, read: dose: 300.0 mg/kg/injection, schedule: Q04DX004 (sc), vehicle: saline with Tween-80.
The mark [14] stands for this setting: dose: 150.0 mg/kg/injection, schedule: Q04DX004 (sc), vehicle: saline with Tween-80.

In the case of `CN1N=C(N)c2cn(C3OC(COP(=O)(O)O)C(O)C3O)c3ncnc1c23` (stereo not given), the T/C under setting [1] was 156 % of control and the T/C (dose: 50.0 mg/kg/injection, schedule: Q01DX010 (sc), vehicle: water) is 182 % of control.

On to `COC1=C2C[C@@H](C)C[C@@H](OC)[C@@H](O)[C@H](C)/C=C(\C)[C@@H](OC(N)=O)[C@H](OC)/C=C\C=C(/C)C(=O)NC(=CC1=O)C2=O`, for which the T/C by setting is: under setting [2], 110 % of control; under setting [3], 113 % of control; under setting [4], 54 % of control; (dose: 16.0 mg/kg/injection, schedule: Q04DX004 (sc), vehicle: saline) 59 % of control.

Take `BrC[P+](CBr)(CBr)CBr`: the T/C under setting [5] is 86 % of control; the T/C (dose: 100.0 mg/kg/injection, schedule: Q04DX004 (sc), vehicle: saline with Tween-80) was 57 % of control; the T/C (dose: 200.0 mg/kg/injection, schedule: Q04DX004 (sc), vehicle: saline with Tween-80) was 82 % of control; the T/C (dose: 400.0 mg/kg/injection, schedule: Q04DX004 (sc), vehicle: saline with Tween-80) is 103 % of control.

On to `CCOC(C)C(/C=N/NC(N)=S)=NNC(N)=S` (stereo not given), for which the T/C was 76 % of control under setting [6]; 49 % of control under setting [7]; 68 % of control (dose: 400.0 mg/kg/injection, schedule: Q01DX010 (sc), vehicle: saline with Tween-80).

Consider `Clc1ccc(C2SC=Cc3ccccc32)cc1` (stereo not given), for which the T/C under setting [8] is 48 % of control.

As to `Cc1cc2nc3c(=O)[nH]c(=O)nc-3n(CC(O)C(O)C(O)C(O)CO)c2cc1C` (stereo not given), the T/C is, setting by setting: under setting [9], 94 % of control; under setting [10], 78 % of control; (dose: 2400.0 mg/kg/injection, schedule: Q04DX004 (sc), vehicle: saline with Tween-80) 90 % of control.

Regarding `NC(=O)c1ncn2c(=O)n(CCCl)nnc12`, the T/C is, setting by setting: (dose: 25.0 mg/kg/injection, schedule: Q04DX004 (sc), vehicle: suspension in saline) 214 % of control; (dose: 50.0 mg/kg/injection, schedule: Q04DX004 (sc), vehicle: suspension in saline) 72 % of control.

As for `CN(Cc1cnc2nc(N)nc(N)c2n1)c1ccc(C(=O)N[C@@H](CCC(=O)O)C(=O)O)cc1`, the T/C runs as follows: (dose: 0.5 mg/kg/injection, schedule: Q01DX010 (sc), vehicle: sodium bicarbonate) 116 % of control; (dose: 1.0 mg/kg/injection, schedule: Q01DX010 (sc), vehicle: sodium bicarbonate) 41 % of control.

As to `CCC1CC2CN(CCc3c([nH]c4ccccc34)C(C(=O)OC)(c3cc4c(cc3OC)N(C)C3C(O)(C(=O)OC)C(OC(C)=O)C5(CC)C=CCN6CCC43C65)C2)C1` (stereo not given), the T/C runs as follows: (dose: 1.0 mg/kg/injection, schedule: Q04DX004 (sc), vehicle: saline) 209 % of control; under setting [2], 164 % of control; under setting [3], 58 % of control; under setting [4], 68 % of control.

On to `CCCCCCCCCCCCCCCCP(=O)(OCCOCCCCCC)OCCOCCCCCC`, for which the T/C (dose: 37.5 mg/kg/injection, schedule: Q04DX004 (sc), vehicle: saline) is 206 % of control; the T/C (dose: 75.0 mg/kg/injection, schedule: Q04DX004 (sc), vehicle: saline) is 93 % of control; the T/C (dose: 300.0 mg/kg/injection, schedule: Q04DX004 (sc), vehicle: saline) was 178 % of control.

In the case of `O=[N+]([O-])/C=C\c1ccc2c(c1)OCO2`, the T/C (dose: 100.0 mg/kg/injection, schedule: Q01DX010 (sc), vehicle: Klucel (hydroxypropylcellulose) (HPC)) was 55 % of control; the T/C (dose: 400.0 mg/kg/injection, schedule: Q01DX010 (sc), vehicle: Klucel (hydroxypropylcellulose) (HPC)) is 163 % of control; the T/C (dose: 800.0 mg/kg/injection, schedule: Q01DX010 (sc), vehicle: Klucel (hydroxypropylcellulose) (HPC)) was 77 % of control.

For `Cc1c2ccccc2cc2cccc[n+]12`, the T/C is 116 % of control (dose: 7.5 mg/kg/injection, schedule: Q04DX004 (sc), vehicle: saline); 63 % of control (dose: 15.0 mg/kg/injection, schedule: Q04DX004 (sc), vehicle: saline); 93 % of control (dose: 30.0 mg/kg/injection, schedule: Q04DX004 (sc), vehicle: saline).

Turning to `Nc1nc(F)nc2c1ncn2C1OC(COP(=O)(O)O)C(O)C1O` (stereo not given), the T/C runs as follows: (dose: 50.0 mg/kg/injection, schedule: Q01DX010 (sc), vehicle: saline) 91 % of control; (dose: 100.0 mg/kg/injection, schedule: Q01DX010 (sc), vehicle: saline) 84 % of control; (dose: 200.0 mg/kg/injection, schedule: Q01DX010 (sc), vehicle: saline) 22 % of control.

In the case of `CN(Cc1cnc2nc(N)nc(N)c2n1)c1c(Cl)cc(C(=O)NC(CCC(=O)O)C(=O)O)cc1Cl` (stereo not given), the T/C by setting is: under setting [11], 166 % of control; under setting [12], 86 % of control.

In the case of `ClC1=C(Cl)C(Cl)=C(Cl)C1=Cc1ccccc1`, under setting [5], the T/C was 104 % of control.

In the case of `COc1c(O)c2c(c3cc(C(=O)N4CCc5c4c(O)c(OC)c4[nH]c(C(=O)N6CC7CC78C6=CC(=O)c6[nH]cc(C)c68)cc54)[nH]c13)CCN2C(N)=O` (stereo not given), the T/C by setting is: (dose: 6.25 micrograms/kg/injection, schedule: Q01DX010 (sc), vehicle: DMSO) 96 % of control; (dose: 12.5 micrograms/kg/injection, schedule: Q01DX010 (sc), vehicle: DMSO) 108 % of control; (dose: 25.0 micrograms/kg/injection, schedule: Q01DX010 (sc), vehicle: DMSO) 65 % of control; (dose: 50.0 micrograms/kg/injection, schedule: Q01DX010 (sc), vehicle: DMSO) 89 % of control.

Regarding `Cc1ccc(NC(=O)Oc2ccc(Br)cc2Br)c([N+](=O)[O-])c1`, the T/C is 35 % of control under setting [13], 52 % of control under setting [9] and 69 % of control under setting [10].

As for `ClCC[Se](Cl)(Cl)c1ccccc1`, the T/C was 154 % of control (dose: 12.5 mg/kg/injection, schedule: Q04DX004 (sc), vehicle: saline) and 100 % of control (dose: 50.0 mg/kg/injection, schedule: Q04DX004 (sc), vehicle: saline).

In the case of `COC1/C=C\C=C(/C)C(=O)NC2=CC(=O)C=C(C2=O)C(OC)C(C)CC(OC)C(OC)C(C)/C=C(/C)C1OC(N)=O` (stereo not given), the T/C was 92 % of control and 95 % of control (dose: 2.25 mg/kg/injection, schedule: Q04DX004 (sc), vehicle: Klucel (hydroxypropylcellulose) (HPC)); 33 % of control (dose: 4.5 mg/kg/injection, schedule: Q04DX004 (sc), vehicle: Klucel (hydroxypropylcellulose) (HPC)); 4 % of control (dose: 9.0 mg/kg/injection, schedule: Q04DX004 (sc), vehicle: Klucel (hydroxypropylcellulose) (HPC)).

As for `Cn1c2nc(=O)n(-c3ccccc3)c(=O)c-2nc2c1CCCC2`, the T/C is 106 % of control under setting [14] and 32 % of control under setting [13].

For the molecule `CCN(CC)CCCC(C)Nc1c2ccc(Cl)cc2nc2ccc(OC)cc12` (stereo not given), the T/C is, setting by setting: (dose: 50.0 mg/kg/injection, schedule: Q01DX010 (sc), vehicle: saline with Tween-80) 75 % of control; under setting [6], 91 % of control; under setting [7], 38 % of control.

As to `[N-]=[N+]=C1N=CN=C1c1ncn[nH]1`, the T/C was 73 % of control under setting [11] and 41 % of control under setting [12].

For `NC(=O)/C=C/C(=O)c1c(Cl)cccc1Cl`, the T/C (dose: 36.0 mg/kg/injection, schedule: Q04DX004 (sc), vehicle: saline with Tween-80) was 52 % of control.

Take `OCC1OC(n2cnc3c(NO)ncnc32)C(O)C1O` (stereo not given): the T/C (dose: 150.0 mg/kg/injection, schedule: Q04DX004 (sc), vehicle: Klucel (hydroxypropylcellulose) (HPC)) is 47 % of control; the T/C (dose: 300.0 mg/kg/injection, schedule: Q04DX004 (sc), vehicle: Klucel (hydroxypropylcellulose) (HPC)) is 46 % of control; the T/C under setting [8] was 52 % of control; the T/C (dose: 1200.0 mg/kg/injection, schedule: Q04DX004 (sc), vehicle: Klucel (hydroxypropylcellulose) (HPC)) is 28 % of control.

Take `CCCCCCC(=O)CC(SCC)c1ccccc1Cl` (stereo not given): the T/C reads like this: under setting [14], 94 % of control; under setting [13], 92 % of control; under setting [10], 99 % of control.

As to `COc1cccc2c1C(=O)c1c(O)c3c(c(O)c1C2=O)C[C@@](O)(C(C)=O)C[C@@H]3OC1CC(N(Cc2ccccc2)Cc2ccccc2)C(O)C(C)O1` (stereo not given in full), the T/C was 36 % of control under setting [1]; 104 % of control and 212 % of control (dose: 31.25 mg/kg/injection, schedule: Q04DX004 (sc), vehicle: water); 97 % of control and 220 % of control (dose: 62.5 mg/kg/injection, schedule: Q04DX004 (sc), vehicle: water).
